Source: patent US11643421B2, “Process for the preparation of tricyclic PI3K inhibitor compounds and methods for using the same for the treatment of cancer” (priority 2015, dated 2023)
Like-named read-outs stand apart in the source and are kept apart here.

Columns and labels:
[1] = In vivo pharmacokinetics IV and PO; set-up: species or system male cynomolgus monkeys; settings: Cyno
Procedure: (§1) The hepatocyte stability of compound IIIat was evaluated across preclinical species. Certain in vivo pharmacokinetic parameters were also evaluated. […] Male Sprague-Dawley rats, female CD-1 mice, male cynomolgus monkeys and beagle dogs were dosed intravenously with 1 mg/kg of compound IIIat prepared in 60% PEG400/10% Ethanol. Compound IIIat was administered orally (PO) at the indicated dose in 0.5% methylcellulose with 0.2% Tween 80 (MCT).

[2] = Phase I dose-escalation study, maximum tolerable dose; settings: orally once daily in cycles of 28 days
Procedure: Plasma samples for pharmacokinetic (“PK”) analysis were collected on day 1 and day 8 or day 15 of cycle 1. Fluorodeoxyglucose positron emission tomography (“FDG-PET”) was performed at baseline and on-treatment.

ErbB4 = ErbB4 (Homo sapiens, UniProt Q15303); assay: biochemical; settings: read-out: % inhib
high-grade gliomas = assay: Phase I study, FDG-PET tumor response; type: in vivo, human; settings: 27 patients who underwent FDG-PET imaging
Procedure: Tumor response was determined by either an assessment of FDG-PET or by Response Assessment in Neuro-Oncology (RANO).
The outcome measure for this objective was based on the maximum standard uptake value (SUVmax) of up to five lesions. The tumor regions of interest (ROIs) were identified for each patient on pretreatment PET imaging and corresponded to a subset of the target lesions used for analysis of the patient's pretreatment tumor assessment scans. […] Specifically, the SUVmax of each ROI on the on-treatment scans was compared with its SUVmax on the corresponding pretreatment scan and the percent change was determined. In the event of more than one ROI, the overall percent change in SUVmax was the arithmetic mean of the percent changes in SUVmax for each of the ROIs (mSUVmax). PET response is defined as follows. Progressive disease (PET-PD): percent increase of >20% in mSUVmax or the development of a new lesion with an SUVmax above background and not explained by another cause (e.g., infection). Stable disease (PET-SD): percent increase of ≤20% in mSUVmax or a percent decrease of ≤20% in mSUVmax. Partial response (PET-PR): percent decrease of >20% in mSUVmax. […]
Reduction in ^18F-FDG uptake measured by PET is indicative of reduced glucose metabolism activity, a likely PD response of PI3K pathway inhibition.

p4EBP1 = assay: PI3K pathway modulation in GS2 tumors, western blot; type: in vivo, mice; settings: 15 mg/kg PO daily 4 weeks
PAK2 = PAK2 (Homo sapiens, UniProt Q13177); assay: biochemical; settings: read-out: % inhib
PKC_eta = PKC_eta (Homo sapiens, UniProt P24723); assay: biochemical; settings: read-out: % inhib
[3] = Hepatocyte stability, predicted hepatic clearance; type: in vitro ADME, cynomolgus monkeys; settings: Cyno hepatocytes, in vitro t1/2 method
Procedure: as §1

NEK2 = NEK2 (Homo sapiens, UniProt P51955); assay: biochemical; settings: read-out: % inhib
CHK1 = CHK1 (Homo sapiens, UniProt O14757); assay: biochemical; settings: read-out: % inhib
[4] = Plasma and brain concentrations in GS2 tumor-bearing mice; type: in vivo; settings: mouse, 15 mg/kg PO; for concentration at 2 h: 2 h post-dose; for concentration at 8 h: 8 h post-dose
[5] = test system: U87 MG Merchant (MG/M) human glioblastoma xenografts
Procedure: All in vivo studies were conducted in compliance with Genentech's Institutional Animal Care and Use Committee. […] Cells in log-phase growth were harvested and resuspended in HBSS:Matrigel (BD Biosciences; Franklin Lakes, N.J.) (1:1, v:v) for injection into female NCr nude mice (Taconic Farms, Cambridge City, Ind.) aged 20 weeks. Animals received five million cells subcutaneously in the right lateral thorax in 0.1 mL. […] The inhibitor was formulated once weekly in 0.5% methylcellulose and 0.2% Tween-80 at concentrations needed for target doses in a volume of 0.2 mL. All formulations were stored in a refrigerator and brought to room temperature and mixed well by vortex before oral administration by gavage once daily for 23 days. Tumor volumes were calculated from perpendicular length and width caliper measurements using the formula: Tumor Volume (mm^3)=0.5×(Length×Width^2). Changes in body weights are reported as a percentage change from the starting weight.
Log 2(tumor volume) growth traces were fitted to each dose group with restricted cubic splines for the dose and fixed time effects. […] Fitted tumor volumes were plotted in the natural scale in Prism (version 5.0b for Mac) (GraphPad Software; La Jolla, Calif.). Linear mixed-effects analysis was also employed using R to analyze the repeated measurement of body weight changes from the same animals over time.
The mice control group was administered the vehicle in the absence of the drug once at the same dosage schedule. Changes in tumor volumes over time by dose for each compound are depicted in FIG. 3 as cubic spline fits generated via Linear Mixed Effects analysis of log-transformed volumes.

pAKT = assay: pAKT/total AKT in U87 MG/M xenograft tumors; type: in vivo, mice; settings: 0.5, 3, 10, 18 mg/kg, 24 days continuous dosing, 1 hour and 4 hours post dose
Procedure: The effect of compound IIIat on the pharmacodynamics (PD) marker pAKT in the U87 MG/M human glioblastoma xenograft model after 24 days of continuous dosing at dosage rates of 0.5 mg/kg, 3 mg/kg, 10 mg/kg and 18 mg/kg was evaluated. Tumors were excised from animals 1 hour and 4 hours after the last administered dose on day 24 and processed for analysis of pAKT and total AKT. The results are reported in FIG. 4 as a ratio of pAKT to total AKT wherein indicated values are the means for groups of 3 animals and error bars indicate ±standard error of the mean. Levels of pAKT^Ser473 and total AKT were measured by electrochemiluminescence using Meso Scale Discovery according to manufacturer's instructions (Gaithersburg, Md.).

Flt1 = Flt1 (Homo sapiens, UniProt P17948); assay: biochemical; settings: read-out: % inhib
pS6 = assay: Modulation of pS6 in the brain of healthy mice; type: in vivo, Female CD-1 mice; settings: single oral dose 25 mg/kg
Procedure: Inhibition of the PI3K pathway was assessed in the brain of healthy mice through measurement of two markers, pAkt and pS6. […] Brains and plasma were collected at 1 and 6 hours post-dose, from 3 animals at each time point. […] For PD analysis, cell extraction buffer (Invitrogen, Camarillo, Calif.) containing 10 mM Tris pH 7.4, 100 mM NaCl, 1 mM EDTA, 1 mM EGTA, 1 mM NaF, 20 mM Na4P2O7, 2 mM Na3VO4, 1% Triton X-100, 10% glycerol, 0.1% SDS, and 0.5% deoxycholate was supplemented with phosphatase, protease inhibitors (Sigma, St. Louis, Mo.) and 1 mM PMSF and added to frozen brain biopsies. Brains were homogenized with a small pestle (Konte Glass Company, Vineland, N.J.), sonicated briefly on ice, and centrifuged at 20,000 g for 20 minutes at 4° C. Protein concentration was determined using BCA protein assay (Pierce, Rockford, Ill.). Proteins were separated by electrophoresis and transferred to NuPage nitrocellulose membranes (Invitrogen, Camarillo, Calif.). Licor Odyssey Infrared detection system (Licor, Lincoln, Nebr.) was used to assess and quantify protein expression. […] The differences in marker levels between the treated and control mice were evaluated using the Student's t-test (Prism 5, GraphPad).

CLK1 = CLK1 (Homo sapiens, UniProt P49759); assay: biochemical; settings: read-out: % inhib
[6] = non-tumored half of the brain, read-out: Brain

CLK1, sequence (P49759 whole entry): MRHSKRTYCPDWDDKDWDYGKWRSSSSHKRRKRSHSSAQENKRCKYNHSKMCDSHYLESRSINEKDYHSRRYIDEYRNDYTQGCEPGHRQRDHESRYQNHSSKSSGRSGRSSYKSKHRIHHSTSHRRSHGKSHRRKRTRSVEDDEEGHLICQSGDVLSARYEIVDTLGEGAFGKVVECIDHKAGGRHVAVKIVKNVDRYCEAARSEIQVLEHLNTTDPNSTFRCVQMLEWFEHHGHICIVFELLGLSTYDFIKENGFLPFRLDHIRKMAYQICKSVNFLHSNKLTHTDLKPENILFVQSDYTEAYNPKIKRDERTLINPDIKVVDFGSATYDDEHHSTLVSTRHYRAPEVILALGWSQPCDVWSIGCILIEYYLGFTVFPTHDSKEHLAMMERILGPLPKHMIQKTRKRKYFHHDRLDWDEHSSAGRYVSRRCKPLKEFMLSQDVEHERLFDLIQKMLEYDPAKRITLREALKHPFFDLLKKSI
ErbB4, sequence (Q15303 26-1308): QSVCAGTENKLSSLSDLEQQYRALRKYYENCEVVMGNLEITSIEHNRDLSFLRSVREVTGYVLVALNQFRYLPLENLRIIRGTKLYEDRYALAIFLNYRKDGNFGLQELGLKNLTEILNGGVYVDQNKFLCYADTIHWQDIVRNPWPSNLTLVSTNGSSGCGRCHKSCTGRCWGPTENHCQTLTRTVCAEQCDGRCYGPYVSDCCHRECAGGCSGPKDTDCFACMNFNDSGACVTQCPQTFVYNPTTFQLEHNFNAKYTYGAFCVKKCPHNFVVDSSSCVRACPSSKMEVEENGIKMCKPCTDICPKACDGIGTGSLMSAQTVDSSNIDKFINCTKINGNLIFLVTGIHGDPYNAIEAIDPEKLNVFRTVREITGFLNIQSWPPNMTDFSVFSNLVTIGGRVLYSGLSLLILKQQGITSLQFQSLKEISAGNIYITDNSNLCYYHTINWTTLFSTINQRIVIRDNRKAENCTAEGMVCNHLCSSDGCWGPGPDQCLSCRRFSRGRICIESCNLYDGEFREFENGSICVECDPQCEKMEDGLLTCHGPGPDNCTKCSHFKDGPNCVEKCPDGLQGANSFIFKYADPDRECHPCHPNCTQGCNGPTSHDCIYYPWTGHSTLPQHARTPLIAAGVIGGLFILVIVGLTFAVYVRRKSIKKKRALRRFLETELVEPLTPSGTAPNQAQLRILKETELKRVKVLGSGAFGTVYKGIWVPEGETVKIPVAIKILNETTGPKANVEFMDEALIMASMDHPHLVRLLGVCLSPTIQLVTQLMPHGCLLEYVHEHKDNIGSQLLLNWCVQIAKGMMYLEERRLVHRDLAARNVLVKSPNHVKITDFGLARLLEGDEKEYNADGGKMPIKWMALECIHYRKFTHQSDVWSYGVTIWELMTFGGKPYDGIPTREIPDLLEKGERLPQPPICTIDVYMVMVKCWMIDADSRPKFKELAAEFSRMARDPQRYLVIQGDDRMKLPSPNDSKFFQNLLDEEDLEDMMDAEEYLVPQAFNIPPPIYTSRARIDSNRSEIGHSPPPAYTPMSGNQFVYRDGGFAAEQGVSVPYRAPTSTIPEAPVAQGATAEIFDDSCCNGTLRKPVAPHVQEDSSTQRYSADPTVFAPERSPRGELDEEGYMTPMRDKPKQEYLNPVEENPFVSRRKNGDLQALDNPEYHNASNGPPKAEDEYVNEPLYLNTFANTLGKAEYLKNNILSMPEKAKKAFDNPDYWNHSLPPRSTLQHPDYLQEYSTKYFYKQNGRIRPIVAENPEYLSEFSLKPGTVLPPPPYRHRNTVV
PAK2, sequence (Q13177 whole entry): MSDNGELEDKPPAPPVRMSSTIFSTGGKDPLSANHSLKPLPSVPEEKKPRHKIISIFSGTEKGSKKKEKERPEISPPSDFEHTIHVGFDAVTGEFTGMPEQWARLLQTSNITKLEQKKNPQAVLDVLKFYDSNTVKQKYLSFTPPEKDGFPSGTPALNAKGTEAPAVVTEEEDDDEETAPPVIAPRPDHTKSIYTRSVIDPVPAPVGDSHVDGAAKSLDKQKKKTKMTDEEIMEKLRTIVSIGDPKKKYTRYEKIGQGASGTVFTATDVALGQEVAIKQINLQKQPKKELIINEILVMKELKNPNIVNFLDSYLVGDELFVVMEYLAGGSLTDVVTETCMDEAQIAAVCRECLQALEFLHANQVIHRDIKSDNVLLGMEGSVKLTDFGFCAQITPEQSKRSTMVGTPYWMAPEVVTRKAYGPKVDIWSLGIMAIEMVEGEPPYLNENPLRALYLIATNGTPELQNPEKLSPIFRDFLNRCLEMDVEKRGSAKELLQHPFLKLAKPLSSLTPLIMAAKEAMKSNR
CHK1, sequence (O14757 whole entry, species assumed): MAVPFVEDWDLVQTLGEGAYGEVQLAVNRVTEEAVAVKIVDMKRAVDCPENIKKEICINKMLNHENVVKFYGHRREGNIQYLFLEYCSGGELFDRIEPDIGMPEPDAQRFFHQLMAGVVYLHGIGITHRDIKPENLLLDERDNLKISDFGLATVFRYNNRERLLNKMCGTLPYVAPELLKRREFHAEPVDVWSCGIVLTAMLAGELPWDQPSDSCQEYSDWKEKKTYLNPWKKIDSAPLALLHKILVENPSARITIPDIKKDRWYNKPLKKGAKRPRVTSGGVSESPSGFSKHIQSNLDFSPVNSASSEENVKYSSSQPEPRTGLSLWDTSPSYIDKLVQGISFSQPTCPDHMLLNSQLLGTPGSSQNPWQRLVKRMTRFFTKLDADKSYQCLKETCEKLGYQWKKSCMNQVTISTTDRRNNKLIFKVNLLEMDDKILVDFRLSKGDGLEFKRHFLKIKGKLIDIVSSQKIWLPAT
PKC_eta, sequence (P24723 whole entry): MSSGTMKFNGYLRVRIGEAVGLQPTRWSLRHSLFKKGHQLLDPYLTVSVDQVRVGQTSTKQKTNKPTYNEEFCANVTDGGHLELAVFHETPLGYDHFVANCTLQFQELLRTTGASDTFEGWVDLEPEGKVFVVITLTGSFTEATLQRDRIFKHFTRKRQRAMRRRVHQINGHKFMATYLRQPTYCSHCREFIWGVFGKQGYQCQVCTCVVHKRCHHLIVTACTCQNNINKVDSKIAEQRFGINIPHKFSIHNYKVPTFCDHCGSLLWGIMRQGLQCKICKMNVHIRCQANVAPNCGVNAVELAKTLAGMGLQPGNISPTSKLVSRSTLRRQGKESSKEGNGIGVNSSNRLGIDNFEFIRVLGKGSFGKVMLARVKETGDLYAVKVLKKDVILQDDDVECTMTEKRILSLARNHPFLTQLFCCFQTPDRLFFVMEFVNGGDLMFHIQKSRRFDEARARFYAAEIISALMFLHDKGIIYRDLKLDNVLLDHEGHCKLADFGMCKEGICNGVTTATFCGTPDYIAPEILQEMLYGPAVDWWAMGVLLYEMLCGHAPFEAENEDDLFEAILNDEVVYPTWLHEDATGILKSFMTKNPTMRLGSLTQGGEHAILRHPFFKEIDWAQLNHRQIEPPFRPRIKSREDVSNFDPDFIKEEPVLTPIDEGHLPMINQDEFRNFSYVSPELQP
NEK2, sequence (P51955 whole entry): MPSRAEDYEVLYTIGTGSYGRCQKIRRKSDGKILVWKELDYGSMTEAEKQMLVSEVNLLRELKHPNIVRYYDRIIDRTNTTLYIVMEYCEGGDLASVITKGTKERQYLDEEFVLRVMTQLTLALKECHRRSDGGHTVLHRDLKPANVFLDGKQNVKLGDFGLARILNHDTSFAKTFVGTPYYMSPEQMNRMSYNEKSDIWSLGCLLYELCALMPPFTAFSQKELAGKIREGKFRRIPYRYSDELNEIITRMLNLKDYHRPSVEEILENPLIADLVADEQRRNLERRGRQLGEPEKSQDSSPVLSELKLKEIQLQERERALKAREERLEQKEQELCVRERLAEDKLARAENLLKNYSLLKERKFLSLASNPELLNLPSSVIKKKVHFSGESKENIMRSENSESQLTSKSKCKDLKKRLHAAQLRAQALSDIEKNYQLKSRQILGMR

Compound `CC1(C)OCCn2c1nc1c(N3CCOCC3)nc(-c3cnc(N)nc3)nc12` [GDC-0084, 5-(6,6-dimethyl-4-morpholino-8,9-dihydro-6H-[1,4]oxazino[3,4-e]purin-2-yl)pyrimidin-2-amine] has an AUC ([1]; PO 2 mg/kg in MCT) of 0.11 μm·h, a Cmax ([1]; PO 2 mg/kg in MCT) of 0.03 μm and a clearance ([1]; male, cynomolgus monkey, plasma, IV 1 mg/kg, read-out: In vivo Cl) of 46 mL/min/kg. For the same compound, the Vd ([1]; male, cynomolgus monkey, plasma, IV 1 mg/kg, read-out: Vss) was 2.9 L/kg, the bioavailability ([1]; male, cynomolgus monkey, plasma, PO 2 mg/kg in MCT) was 6% and the MTD [2] was 45 mg. The inhibition at 1 µM (ErbB4) was 7%, the “patients with metabolic partial response on FDG-PET” value (high-grade gliomas) was “five” and the “patients with metabolic partial response on FDG-PET, percent” value (high-grade gliomas) was 18.5%. The “Suppression of p4EBP1 in GS2 tumors” value (p4EBP1; 2 hours after final administration) was 43%, the “p4EBP1 level in GS2 tumors” value (p4EBP1; 8 hours post-dose) was “back to baseline levels” and the inhibition at 1 µM (PAK2) was 3%. For the same compound, the inhibition at 1 µM (PKC_eta) was -9%, the Clhep [3] was 26 mL/min/kg and the inhibition at 1 µM (NEK2) was 20%. It also gave an inhibition at 1 µM (CHK1) of 0.6%, a concentration at 2 h ([4]; plasma, read-out: Plasma) of 3.64 ± 2.05 µM and a concentration at 8 h ([4]; plasma, read-out: Plasma) of 2.01 ± 1.19 µM. The concentration at 2 h [4, 6] was 5.51 ± 1.58 µM, the concentration at 8 h [4, 6] was 2.48 ± 1.25 µM and the “tumor response at highest dose” value ([5]; 17.9 mg/kg dose level) was “tumor regressions”. The tumor growth inhibition ([5]; 0.45-17.9 mg/kg oral, 23 days) was “significant and dose-dependent tumor growth inhibition”, the tolerability ([5]; mouse, in vivo) was “well tolerated” and the “dose level at which tumor growth inhibition was first observed” value ([5]; oral dose escalation) was 2.2 mg/kg. The “inhibition of pAKT (pAKT/total AKT) in U87 tumors” value (pAKT) was “Dose and concentration dependent inhibition of pAKT”, the inhibition at 1 µM (Flt1) was 0.6% and the “Suppression of pS6 in brain” value (pS6; 1 hour post dose) was 90%. For the same compound, the “Suppression of pS6 in brain” value (pS6; 6 hours after dosing) was “greater than 70%” and the inhibition at 1 µM (CLK1) was 4%.
